Laboratory results taken from publication PMC1851987, “Identification of the Endogenous Key Substrates of the Human Organic Cation Transporter OCT2 and Their Implication in Function of Dopaminergic Neurons” (PLoS ONE, 2007).
Changes are numbered by the printed parent chain. Marks after values point to notes of the source that are not given here.

Assays:
OCT2 variant A270S = biological target: T1, OCT2 variant A270S (Homo sapiens, UniProt O15244); assay: Specific uptake into HEK-293 cells transfected with OCT2 variant A270S
T1 sequence (O15244 1-555): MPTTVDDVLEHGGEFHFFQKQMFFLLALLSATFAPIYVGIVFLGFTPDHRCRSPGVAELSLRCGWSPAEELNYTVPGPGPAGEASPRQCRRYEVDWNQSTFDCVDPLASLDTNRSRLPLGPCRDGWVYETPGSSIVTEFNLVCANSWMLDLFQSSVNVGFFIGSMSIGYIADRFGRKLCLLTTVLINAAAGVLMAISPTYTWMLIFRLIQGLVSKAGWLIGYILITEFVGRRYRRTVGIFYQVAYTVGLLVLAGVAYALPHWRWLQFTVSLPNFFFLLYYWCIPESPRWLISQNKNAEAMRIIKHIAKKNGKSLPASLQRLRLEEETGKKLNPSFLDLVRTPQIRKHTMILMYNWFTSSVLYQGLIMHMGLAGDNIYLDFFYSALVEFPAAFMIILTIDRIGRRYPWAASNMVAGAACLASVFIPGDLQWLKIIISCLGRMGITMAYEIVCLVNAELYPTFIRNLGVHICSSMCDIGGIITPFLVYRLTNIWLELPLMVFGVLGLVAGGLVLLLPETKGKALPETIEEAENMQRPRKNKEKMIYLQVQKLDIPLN
Method: (§1) The cDNAs encoding the organic cation transporters OCT1 (GenBank accession no. NM_003057), OCT2 (NM_003058), and EMT (NM_021977) were amplified by RT-PCR from human liver, kidney, and placenta total RNA respectively, and subcloned into the eukaryotic expression vector pcDNA3. The cDNA encoding the norepinephrine transporter (SLC6A2) was kindly provided by C. Pifl (University of Vienna).
For uptake experiments, cells were grown on polystyrene dishes of 60 mm diameter to at least 80% confluence. […] Cells were lysed with 1 ml of 4 mmol/l perchloric acid and lysates subjected to LC-MS-MS quantification. Cellular protein content was determined after solubilization of perchloric acid precipitates with 1 ml of […] NaOH using the bicinchoninic assay (BCA Protein Assay Kit, Pierce).
Chromatographic separations were performed on Hypercarb (5 µm, 50×2.1 mm; Thermo Electron), Aquasil C18 (3 µm, 100×4.6 mm; Thermo Electron), or Hilic columns (5 µm, 100×3.0 mm; Waters Atlantis) by isocratic or gradient elution using 0.1% aqueous formic acid (A) and acetonitrile or methanol (B) as solvent system. For quantification, SRM transitions of a precursor ion [M+H]^+ into a specific fragment ion (peak area ratios relative to IS) were recorded in positive ESI mode at 1.0–1.5 mTorr collision pressure and 10–40 eV collision energy. […]

[1] = tested on: HEK-293 cells expressing empty vector; assay: MTT reduction cell viability assay, empty vector transfected HEK-293 cells; assay type: cell-based, human
Method: Cell viability was assessed in HEK-293 cells, human dopaminergic neuroblastoma cells (SH-SY5Y) and human glioblastoma cells (HTZ-146) by the MTT test as described.[22] […] For indication of metabolic activity, cells were treated with MTT reagent (15 µl of 1 mg/ml stock solution per well) for 1 h, and after drying of culture plates for 1 h at 37°C, the resulting formazan dye was extracted with isopropanol/HCl (100 µl 0.04 mol/l per well) and absorbance was determined spectrophotometrically at 568 nm. Results were in agreement with the data obtained by the tryptan blue exclusion method (data not shown).

OCT2 variant R400C = biological target: T2, OCT2 variant R400C (Homo sapiens, UniProt O15244, R400C/S270A); assay: Specific uptake into HEK-293 cells transfected with OCT2 variant R400C (mutant 400C); details: for Clin: incubation with 10 µmol/l
T2 sequence (O15244 1-555 S270A/R400C): T1 sequence (O15244 1-555) with S270A, R400C
Method: as §1
For uptake experiments, cells were grown on polystyrene dishes of 60 mm diameter to at least 80% confluence. Prior to addition of test compounds, culture medium was replaced by 3 ml HEPES-modified Krebs buffer (140.0 mmol/l NaCl, 5.0 mmol/l KCl, 2.0 mmol/l CaCl2, 1.0 mmol/l MgCl2, 10.0 mmol/l HEPES, and 5.0 mmol/l D-glucose, adjusted to pH 7.40), and cells were left to equilibrate for 60 min at 37°C. Uptake was terminated after indicated times by washing cells with ice-cold buffer. Cells were lysed with 1 ml of 4 mmol/l perchloric acid and lysates subjected to LC-MS-MS quantification. Cellular protein content was determined after solubilization of perchloric acid precipitates with 1 ml of […] NaOH using the bicinchoninic assay (BCA Protein Assay Kit, Pierce).
Chromatographic separations were performed on Hypercarb (5 µm, 50×2.1 mm; Thermo Electron), Aquasil C18 (3 µm, 100×4.6 mm; Thermo Electron), or Hilic columns (5 µm, 100×3.0 mm; Waters Atlantis) by isocratic or gradient elution using 0.1% aqueous formic acid (A) and acetonitrile or methanol (B) as solvent system. For quantification, SRM transitions of a precursor ion [M+H]^+ into a specific fragment ion (peak area ratios relative to IS) were recorded in positive ESI mode at 1.0–1.5 mTorr collision pressure and 10–40 eV collision energy. External calibration curves were obtained from serial dilutions of the analyte in 4 mmol/l HClO4 by linear or logistic regression. Detection limit was at least 0.001 nmol/mg protein.
Uptake versus time data were fitted by linear one-compartment kinetics: cin(t) = cin,∞·(1−e^−kex·t), where cin(t) represents intracellular free substrate concentration after time t (pmol/mg protein), cin,∞ extrapolated maximal intracellular free substrate concentration (pmol/mg protein), and kex efflux rate constant (1/min). Influx clearance was calculated as CLin = cin,∞/cex·kex (µl/mg protein/min), with cex extracellular free substrate concentration (pmol/µl). Statistical significance of differences between two treatments was evaluated by the unpaired two-tailed t-test or Mann-Whitney U-test, differences between more than two treatments by one-way ANOVA or Kruskal-Wallis test, as applicable. P<0.05 was considered statistically significant.

Structure (SMILES)	Clin (OCT2 variant A270S; incubation with 10 µmol/l, mean (s.e.m.))	effect of pretreatment on salsolinol-induced degeneration ([1]; cyclo(his-pro) 10 µmol/l, 12 h prior to salsolinol treatment)	Vmax (OCT2 variant R400C; 1 min of loading, mean (s.e.m.), listed as CHP)	clearance (Clin) of 400C relative to the 400R reference (OCT2 variant R400C; 400C vs wild-type 400R)	transport efficiency (Vmax/Km) of 400C relative to the 400R reference (OCT2 variant R400C; 400C vs wild-type 400R)	Clin (OCT2 variant R400C; mean (s.e.m.))	Clin (OCT2 variant R400C; mean (s.e.m.), listed as CHP)	Km at 1 min (OCT2 variant A270S; human, pH 7.4)	EC50 ([1]; Homo sapiens, HEK293, 48 h exposure, no pretreatment, read-out: EC50 (95% confidence interval), cell viability)	Km at 1 min (OCT2 variant R400C; human, pH 7.4)
O=C1NC(Cc2c[nH]cn2)C(=O)N2CCCC12 (stereo not shown) [cyclo(his-pro), histidyl-proline diketopiperazine]	25.5 (3.3) µl/mg/min	had no effect	1.0 (0.1) nmol/mg/min	70%	48%	17.6 (1.5)^# µl/mg/min	17.6 (1.5) µl/mg/min			
CC1NCCc2cc(O)c(O)cc21 (stereo not shown) [salsolinol]								132 µM	1110 µM	123 µM
